Data on one substance can be found in patent publication US20060240083A1, “ANTIMICROBIAL AND IMMUNOSTIMULATING COMPOSITION” (BRENNEN MEDICAL, LLC, priority 2000, published 2006).

In the assay the test system is bacteria. Briefly: Zone-of-inhibition test, overall outcome in words. The format is cell-based. The method, then:
A standard zone-of-inhibition study was performed on the lotion and wound dressing exemplars described above. The zone-of-inhibition test involved placing a quantity of the prepared lotion or wound dressing in a petri dish, which had been cultured with a particular bacterium. The bacteria used in this test included: B. subtilis, B. vulgatus, C. albicans, E. coli, P. aeruginosa, and S. aureus. In each of these tests, the diameter of the prepared lotion or wound dressing placed in the cultured petri dishes was measured and recorded at the outset of the test. On the first, second, and fifth days thereafter the diameter of the zone of inhibition was measured and recorded. The zone of inhibition in this test was defined as the area surrounding the prepared lotion or wound dressing on the petri dish which was uninhabited by the bacteria of the specific culture. Table 1 reports data for the prepared lotion zone-of-inhibition test and Table 2 reports data for the prepared wound dressing zone-of-inhibition test.
Similar results are observed for a zone-of-inhibition test when a yeast-derived β-glucan is used in a medical composition as described herein.

In the case of β-glucan, the “antimicrobial effect in the zone-of-inhibition test (in words)” value (overall outcome of the zone-of-inhibition tests) is “no inhibition of bacteria”. The “effect on bacterial growth (in words)” value (β-glucan as a microbial nutrient) was “promotes bacterial growth”.
